Data published in ChEMBL document CHEMBL1201862, “PubChem BioAssay data set” (2004).
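Grown in 96-well plates, cells were treated for 48 hours with each compound at five concentrations. Insufficient inhibition: endpoint recorded as highest concentration tested. Abbreviation: GI50, concentration required for 50% inhibition of growth.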 Calls of active or inactive are those of the source. Cut-off read from the data, not from the text of the source: active = GI50 up to about 1.1 µM and inactive = higher.

What was measured:
Assay in all cases: NCI anticancer screen, dose series, 48 h
A549 = tested on: A549
Malme-3M = tested on: Malme-3M
SR = tested on: SR
OVCAR-5 = tested on: OVCAR-5
MDA-MB-231 = tested on: MDA-MB-231
HT-29 = tested on: HT-29
NCI-H226 = tested on: NCI-H226
M14 = tested on: M14
IGROV-1 = tested on: IGROV-1
OVCAR-4 = tested on: OVCAR-4
BT-549 = tested on: BT-549
SNB-75 = tested on: SNB-75
SN12C = tested on: SN12C
MDA-N = tested on: MDA-N
SK-MEL-5 = tested on: SK-MEL-5
MDA-MB-435 = tested on: MDA-MB-435
UACC-62 = tested on: UACC-62
COLO 205 = tested on: COLO 205
UO-31 = tested on: UO-31
786-0 = tested on: 786-0

Structure (SMILES) | GI50 (A549) | GI50 (Malme-3M) | GI50 (SR) | GI50 (OVCAR-5) | GI50 (MDA-MB-231) | GI50 (HT-29) | GI50 (NCI-H226) | GI50 (M14) | GI50 (IGROV-1) | GI50 (OVCAR-4) | GI50 (BT-549) | GI50 (SNB-75) | GI50 (SN12C) | GI50 (MDA-N) | GI50 (SK-MEL-5) | GI50 (MDA-MB-435) | GI50 (UACC-62) | GI50 (COLO 205) | GI50 (UO-31) | GI50 (786-0)
COc1ccc2c(c1)[n+]([O-])c(C#N)c(N1CCN(c3ccc([N+](=O)[O-])cc3)CC1)[n+]2[O-] | 3.08 µM (inactive) | 2.64 µM (inactive) | 0.41 µM (active) | 7.1 µM (inactive) | 5.31 µM (inactive) | > 22.4 µM (inactive) | 10.7 µM (inactive) | 4.52 µM (inactive) | 1.49 µM (inactive) | 3.94 µM (inactive) | 3.69 µM (inactive) | 8.53 µM (inactive) | 6.37 µM (inactive) | 7.35 µM (inactive) | 3.59 µM (inactive) | 5.13 µM (inactive) | 3.76 µM (inactive) | 2.24 µM (inactive) | < 0.01 µM (active) | 8.63 µM (inactive)
CC[C@@]1(O)C(=O)OCc2c1cc1n(c2=O)Cc2c-1nc1ccccc1c2/C=N\NC(=O)C(N)Cc1c[nH]c2ccccc12 (stereo not given in full) | 0.301 µM (active) | 1.76 µM (inactive) | < 0.01 µM (active) | 13.1 µM (inactive) | 33 µM (inactive) | 3.74 µM (inactive) | 1.11 µM (active) | 0.332 µM (active) | 2.86 µM (inactive) | 3.08 µM (inactive) | 6.25 µM (inactive) | 0.0745 µM (active) | 0.108 µM (active) | 2.02 µM (inactive) | 0.521 µM (active) | 1.05 µM (active) | 0.0528 µM (active) | 18.2 µM (inactive) | 0.173 µM (active) | 0.108 µM (active)
CCOP(=O)(O)C(Nc1ccc(/N=N/c2ccccc2)cc1)c1ccc(C(Nc2ccc(/N=N/c3ccccc3)cc2)P(=O)(O)OCC)cc1 (stereo not given) | 29.7 µM (inactive) | 17.9 µM (inactive) | 19.8 µM (inactive) | 22.4 µM (inactive) | 30 µM (inactive) | 18.3 µM (inactive) | 40.3 µM (inactive) | 15.7 µM (inactive) | 19.7 µM (inactive) | 42.8 µM (inactive) | 18.1 µM (inactive) | 14.7 µM (inactive) | 19.2 µM (inactive) | 19.4 µM (inactive) | 16.6 µM (inactive) | 17.4 µM (inactive) | 19.2 µM (inactive) | 15.3 µM (inactive) | 67.1 µM (inactive) | 26.8 µM (inactive)
O=C(c1c(F)c(F)c(F)c(F)c1F)n1c(O)nc2ccccc21 | 16.7 µM (inactive) | 14.8 µM (inactive) | 2.62 µM (inactive) | 15.7 µM (inactive) | 12.2 µM (inactive) | 6.28 µM (inactive) | 17.3 µM (inactive) | 9.33 µM (inactive) | 11.4 µM (inactive) | 13.3 µM (inactive) | 18.5 µM (inactive) | 16.5 µM (inactive) | 14.1 µM (inactive) | 7.33 µM (inactive) | 15.2 µM (inactive) | 10.1 µM (inactive) | 12.1 µM (inactive) | 12.9 µM (inactive) | 12.3 µM (inactive) | 10.8 µM (inactive)
O=C(/C=C/c1ccccc1O)CC(=O)/C=C/c1ccccc1O | 7.14 µM (inactive) | 11.7 µM (inactive) | 2.67 µM (inactive) | > 10 µM (inactive) | > 10 µM (inactive) | 1.84 µM (inactive) | > 10 µM (inactive) | 12.8 µM (inactive) | 5.73 µM (inactive) | 15.1 µM (inactive) | 5.62 µM (inactive) | > 46.2 µM (inactive) | 5.38 µM (inactive) | 2.97 µM (inactive) | 5.32 µM (inactive) | 4.38 µM (inactive) | 4.93 µM (inactive) | 3.95 µM (inactive) | 4.73 µM (inactive) | 4.21 µM (inactive)
CCCCc1ccc(Nc2nc(N)c3ncn(COCCO)c3n2)cc1 | 44.3 µM (inactive) | 25.7 µM (inactive) | 18 µM (inactive) | 38.8 µM (inactive) | 29 µM (inactive) | 24.4 µM (inactive) | 44.3 µM (inactive) | 20.6 µM (inactive) | 18 µM (inactive) | 32.2 µM (inactive) | 25.5 µM (inactive) | 32.6 µM (inactive) | 33 µM (inactive) | 37.2 µM (inactive) | 18 µM (inactive) | 22.1 µM (inactive) | 16.8 µM (inactive) | 17.2 µM (inactive) | 29.9 µM (inactive) | 25.5 µM (inactive)
C[C@@H]1C[C@H]2CC[C@H](O2)[C@H](C)C(=O)O[C@@H](C)C[C@@H]2CC[C@@H](O2)[C@@H](C)C(=O)O[C@H](C)C[C@H]2CC[C@H](O2)[C@H](C)C(=O)O[C@@H](C)C[C@@H]2CC[C@@H](O2)[C@@H](C)C(=O)O1 | 0.344 µM (active) | 0.199 µM (active) | 0.495 µM (active) | 0.568 µM (active) | 0.345 µM (active) | 0.237 µM (active) | 0.436 µM (active) | 0.434 µM (active) | 0.34 µM (active) | 0.136 µM (active) | 0.396 µM (active) | 0.338 µM (active) | 0.366 µM (active) | 0.404 µM (active) | 0.154 µM (active) | 0.338 µM (active) | 0.351 µM (active) | 0.155 µM (active) | 0.374 µM (active) | 0.445 µM (active)
CSc1ccc2c(cc1=O)[C@@H](NC(C)=O)CCc1cc(O)c(O)c(O)c1-2 | 20.1 µM (inactive) | 57 µM (inactive) | 7.8 µM (inactive) | 17.1 µM (inactive) | 23.9 µM (inactive) | 9.82 µM (inactive) | 15.4 µM (inactive) | 18.7 µM (inactive) | 15.2 µM (inactive) | 17.6 µM (inactive) | 29.6 µM (inactive) | 14.3 µM (inactive) | 20.2 µM (inactive) | 11.3 µM (inactive) | 32.4 µM (inactive) | 10.4 µM (inactive) | 36.1 µM (inactive) | 30.4 µM (inactive) | 21.6 µM (inactive) | 13.8 µM (inactive)
CC[C@@]1(O)C(=O)OCc2c1cc1n(c2=O)Cc2c-1nc1ccccc1c2CC[Si](C)(C)C [COSITECAN] | < 0.01 µM (active) | < 0.01 µM (active) | < 0.01 µM (active) | 0.0601 µM (active) | 0.417 µM (active) | < 0.01 µM (active) | < 0.01 µM (active) | < 0.01 µM (active) | 0.0149 µM (active) | 0.0998 µM (active) | 0.023 µM (active) | < 0.01 µM (active) | < 0.01 µM (active) | < 0.01 µM (active) | < 0.01 µM (active) | < 0.01 µM (active) | < 0.01 µM (active) | < 0.0383 µM (active) | < 0.01 µM (active) | < 0.01 µM (active)
CC(C)(C)c1cc(C(=O)/C=C/c2c(Cl)cccc2Cl)cc(C(C)(C)C)c1O | 18.8 µM (inactive) | 18.6 µM (inactive) | 3.86 µM (inactive) | 19.2 µM (inactive) | 10.9 µM (inactive) | 10.2 µM (inactive) | 17.8 µM (inactive) | 20.3 µM (inactive) | 23.4 µM (inactive) | 28.7 µM (inactive) | 17.4 µM (inactive) | 4.93 µM (inactive) | 21 µM (inactive) | 16.7 µM (inactive) | 11.4 µM (inactive) | 15.5 µM (inactive) | 12.8 µM (inactive) | 15.9 µM (inactive) | 14.9 µM (inactive) | 13.1 µM (inactive)
